Measurements from patent publication US20230416224A1, “PROCESSES FOR PREPARING ARIMOCLOMOL CITRATE AND INTERMEDIATES THEREOF” (ZEVRA DENMARK A/S, priority 2020, published 2023).

Columns and labels:
[1] = Particle size distribution of ORZY-05 by static automated imaging (Morphologi 4); type: physicochemical; details: ORZY-05 particles
Procedure: The materials and methods were essentially as in Example 7. In the present example, the cooling time of the cooling step of from 30° C. to 0° C. subsequent to addition of acetone was varied and its influence on the particle size of ORZY-05 was determined. The cooling time is a measure of how long it takes to reach 0° C. from 30° C. The particle size distribution (PSD) data shown in Table 3 were acquired using static automated imaging (Morphology 4).
Morphologi 4: The Particle size distribution of Arimoclomol citrate (ORZY-05) was also measured using a Malvern Morphologi 4 equipment.
Wet measurement was used for the needle shaped particles. […] Measurements were made using a thin path wet cell (75*75 mm). Samples were prepared by adding 20 mL of dispersant to 10 mg of API, followed by 30 s of stirring and 2 min of sonication in order to break the agglomerates. A microscope magnifier of X10 or X20 was used, and segmentation sharp edge and/or thresholding was used to improve the focus microscope focus.

[2] = Particle size distribution of ORZY-05 by Malvern Mastersizer 3000; type: physicochemical; details: ORZY-05 particles, Malvern Mastersizer 3000, volume distribution
Procedure: Further batches of ORZY-05 were prepared essentially as in Example 7 and the ORZY-05 particles were examined using Malvern Mastersizer 3000 as described in Example 11.
Malvern Mastersizer 3000: Particle size distribution of Arimoclomol citrate (ORZY-05) was determined by light scattering using a Malvern Mastersizer 3000 particle size analyzer (Malvern Instruments Ltd, Grovewood Road, Malvern, Worcestershire WR14 1XZ, United Kingdom) with a Hydro MV wet-dispersion unit attached. 2-Propanol with 1.8 g/L SPAN-85 additive was used as a dispersion medium (“dispersant”) and added to the dispersion unit. Prior to sample addition, the background counts of the system were determined by circulating the dispersant through the measurement cell under measurement conditions (2500 rpm stirrer speed). Samples for analysis were prepared by adding a suitable amount of Arimoclomol citrate to a 10 mL vial and pre-dispersing it with dispersant under light agitation for a few seconds. The pre-dispersed sample was then pipetted into the Hydro MV dispersion unit filled with dispersant to meet a laser obscuration range of 10-15%. A single-use PE pipette was used for this and representative sampling from the 10 mL vial was ensured by continuous agitation. […] Volume distributions were obtained and the D10, D50 and D90 were calculated from these distributions and reported. For each sample, a single sample preparation was analyzed using red light measurement only. Upon measurement completion, the sample cell was emptied and cleaned.

[3] = parameters: species or system human; details: in vivo
Procedure: The PK parameters of arimoclomol after single dose and multiple dose administrations of arimoclomol were studied. After single- and multiple-dose oral administration of arimoclomol, the overall median tmax was 0.25 to 3.00 hours.

[4] = type: in vivo, human
Text: The stability permits that the permeability of arimoclomol is high based on urinary recovery in human mass balance trial.

[5] = parameters: species or system dogs; details: dog, in vivo
[6] = Stability of ORZY-04 on drying; type: physicochemical; details: 168 h of drying at 45° C. in vacuum
Procedure: A citric acid solution was prepared by charging citric acid (15.01 g, […]) and MeOH (100 mL) in a separate container and stirring for 5 min. at 20° C. The citric acid solution was then charged to the container containing the reaction solution, and the mixture was cooled to 0° C. and stirred for at least 12 h at 0° C. ORZY-04 was then isolated by filtration of the obtained suspension, and washed with MeOH (40 mL). Finally, the solids were dried at 45° C. in vacuum.

Row | SMILES | Number CE Diameter D10 [1] [μm] | Number CE Diameter D50 [1] [μm] | Number CE Diameter D90 [1] [μm] | Number CE Diameter Mean [1] [μm] | Number Length D10 [1] [μm] | Number Length D50 [1] [μm] | Number Length D90 [1] [μm] | Volume CE Diameter D10 [1] [μm] | Volume CE Diameter D50 [1] [μm] | Volume CE Diameter D90 [1] [μm] | Volume CE diameter D[3,2] [1] [μm] | Volume CE diameter D[4,3] [1] [μm] | D10 [2] [μm] | D50 [2] [μm] | D90 [2] [μm] | also measured
1 | O=C(O)CC(O)(CC(=O)O)C(=O)O.[O-][n+]1cccc(/C(Cl)=N/OC[C@H](O)CN2CCCCC2)c1 [compound 1001, arimoclomol citrate] | 2.41 | 5.28 | 17.81 | 8.16 | 2.90 | 7.03 | 26.69 | 13.10 | 25.95 | 47.14 | 21.77 | 29.46 | 7.00 | 21.00 | 63.00 | 
2 | [O-][n+]1cccc(C(Cl)=NOC[C@H](O)CN2CCCCC2)c1 [arimoclomol, N-{[(2R)-2-hydroxy-3-piperidin-1-ylpropyl]oxy}pyridine-3-carboximidoyl chloride 1-oxide] |  |  |  |  |  |  |  |  |  |  |  |  |  |  |  | PK parameters (Cmax and AUC0-8) versus dose [3]: increase in proportion to the dose; absorption ([3]; po): rapid and extensive; drug-related material recovered in faeces ([4]; in vivo): 12%; drug-related material recovered in the urine ([4]; in vivo): 77.5%; permeability ([4]; not told): high; absolute bioavailability [5]: 75%
3 | [O-][n+]1cccc(/C(Cl)=N/OC[C@H](O)CN2CCCCC2)c1 [ORZY-04] |  |  |  |  |  |  |  |  |  |  |  |  |  |  |  | stability on drying [6]: stable
4 | O=C(O)CC(O)(CC(=O)O)C(=O)O.[O-][n+]1cccc(/C(Cl)=N/OC[C@H](O)CN2CCCCC2)c1 [compound 1002, arimoclomol citrate] | 2.45 | 5.61 | 15.01 | 7.71 | 3.46 | 7.37 | 22.17 | 12.39 | 32.12 | 73.60 | 24.24 | 39.38 | 14.00 | 53.00 | 118.00 | 
5 | O=C(O)CC(O)(CC(=O)O)C(=O)O.[O-][n+]1cccc(/C(Cl)=N/OC[C@H](O)CN2CCCCC2)c1 [compound 1003, arimoclomol citrate] | 0.89 | 3.34 | 14.14 | 5.79 | 4.20 | 9.50 | 25.49 | 10.66 | 20.58 | 34.54 | 17.52 | 22.10 | 6.00 | 17.00 | 47.00 | 
6 | O=C(O)CC(O)(CC(=O)O)C(=O)O.[O-][n+]1cccc(/C(Cl)=N/OC[C@H](O)CN2CCCCC2)c1 [compound 1004, arimoclomol citrate] | 1.05 | 2.86 | 13.33 | 5.31 | 2.82 | 6.18 | 24.80 | 12.62 | 25.00 | 43.46 | 20.53 | 27.06 | 8.00 | 22.00 | 68.00 | 
